16 compounds from PubChem BioAssay (NCI) can be followed below.

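All cell lines were grown in 96-well plates and treated with compound for 48 hours. GI50 = concentration required for 50% inhibition of growth. TGI: concentration producing complete growth inhibition.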 Bounds are passed on as bounds.

Some test systems named below: NCI-H522 lung; HS 578T breast; LOX IMVI melanoma; SK-OV-3 ovarian; NCI/ADR-RES ovarian; HOP-62 NSCLC; OVCAR-4 ovarian; MALME-3M melanoma; SR leukemia; RPMI-8226 leukemia.
Common to all, as to test: growth of human tumour cells (NCI), 48 h

Take `O=C(O)Cn1c2c(c3c(O)cccc31)C(=O)c1ccccc1-2`: the GI50 with NCI-H522 lung, in the experiment on HS 578T breast, with LOX IMVI melanoma, in the experiment on SK-OV-3 ovarian, in the experiment on NCI/ADR-RES ovarian and in the experiment on HOP-62 NSCLC was greater than 100 µM in each case. The GI50 in the experiment with OVCAR-4 ovarian and in the experiment with MALME-3M melanoma was greater than 100 µM each time. The TGI in the experiment on NCI-H522 lung, with HS 578T breast, with LOX IMVI melanoma, in the experiment on SK-OV-3 ovarian, in the experiment with NCI/ADR-RES ovarian and in the experiment with HOP-62 NSCLC was greater than 100 µM in each case. In addition, the TGI with OVCAR-4 ovarian and with MALME-3M melanoma was greater than 100 µM throughout.

For `CC(C)(C)NC(=O)C12C3C4C1C1C2C3C41C(=O)NC(C)(C)C` (centres undefined), the TGI in the experiment with NCI-H522 lung, with SR leukemia, in the experiment on HS 578T breast, in the experiment on LOX IMVI melanoma, in the experiment with NCI/ADR-RES ovarian and with HOP-62 NSCLC was greater than 100 µM each time. In addition, the TGI with OVCAR-4 ovarian was greater than 100 µM.

On to `CC(=O)N/C(=C\c1ccc(/C=C(\NC(C)=O)C2=NC3C(=O)c4ccccc4C(=O)C3N2)cc1)C1=NC2C(=O)c3ccccc3C(=O)C2N1` (centres undefined), for which the TGI with NCI-H522 lung, with RPMI-8226 leukemia, in the experiment with LOX IMVI melanoma, in the experiment with SK-OV-3 ovarian and with OVCAR-4 ovarian was greater than 100 µM in each case.

On to `O=C1CN(c2ccc(Cl)cc2)C(=O)CN1NCNN1CC(=O)N(c2ccc(Cl)cc2)CC1=O`, for which the TGI in the experiment on NCI-H522 lung, in the experiment on SR leukemia, with HS 578T breast, in the experiment with RPMI-8226 leukemia, in the experiment on SK-OV-3 ovarian and with HOP-62 NSCLC was greater than 100 µM each time. Besides, the TGI in the experiment on OVCAR-4 ovarian and in the experiment with MALME-3M melanoma was greater than 100 µM throughout.

`COc1ccc2c(c1)C(N)=C(Cc1ccncc1)C2=O`: the TGI with NCI-H522 lung, in the experiment on HS 578T breast, in the experiment on RPMI-8226 leukemia, in the experiment with LOX IMVI melanoma, in the experiment on SK-OV-3 ovarian and in the experiment on NCI/ADR-RES ovarian was greater than 100 µM each time. Further, the TGI in the experiment with HOP-62 NSCLC, in the experiment with OVCAR-4 ovarian and with MALME-3M melanoma was greater than 100 µM each time.

As to `CC[C@@H](/C=C\CCC1(C[C@@H](N)CCC=C(C)C)OCCO1)O[Si](C(C)C)(C(C)C)C(C)C`, the TGI in the experiment with NCI-H522 lung came to 39.7 µM; with SR leukemia, 14.5 µM; with HS 578T breast it was 52.4 µM; in the experiment on RPMI-8226 leukemia it was 38 µM; with LOX IMVI melanoma, 18.3 µM; with SK-OV-3 ovarian, 37.8 µM. Also, the figures for the TGI in the experiment with NCI/ADR-RES ovarian, in the experiment with HOP-62 NSCLC and in the experiment with OVCAR-4 ovarian were 33.9 µM, 48.2 µM and 36.8 µM, respectively.

Turning to `C[C@]12CC/C(=N\OCCN3CCCCC3)C=C1CCC1C2CC[C@@]2(C)C1CC[C@]2(C)O` (some centres undefined), the TGI in the experiment with NCI-H522 lung stood at 7.52 µM; in the experiment on HS 578T breast, 32.1 µM; in the experiment with RPMI-8226 leukemia it was 31.5 µM; with LOX IMVI melanoma, 15.7 µM; with SK-OV-3 ovarian it was 35 µM; in the experiment on NCI/ADR-RES ovarian, 20.5 µM. In addition, the TGI in the experiment with HOP-62 NSCLC is 43.7 µM; with OVCAR-4 ovarian, 76 µM; with MALME-3M melanoma it was 23.2 µM.

For `[O-][n+]1c(-c2ccccc2)c2nc3ccccc3nc2c2ccccc21`, the TGI in the experiment with NCI-H522 lung, in the experiment with RPMI-8226 leukemia, in the experiment on LOX IMVI melanoma, in the experiment on SK-OV-3 ovarian, in the experiment with HOP-62 NSCLC and in the experiment on OVCAR-4 ovarian was greater than 100 µM in each case. This compound also yielded a TGI in the experiment on MALME-3M melanoma greater than 100 µM.

On to `CCN(CC)CCNc1ccc2nnn3c4ccccc4c(=O)c1c23`, for which the TGI with NCI-H522 lung is 16.4 µM; with SR leukemia, 5.44 µM; in the experiment on RPMI-8226 leukemia it was greater than 24.2 µM; in the experiment on LOX IMVI melanoma, 12 µM; with SK-OV-3 ovarian it was 62.5 µM; with HOP-62 NSCLC, 15.8 µM. The TGI with OVCAR-4 ovarian came to 13.7 µM; with MALME-3M melanoma, 16.1 µM.

For `Cc1c2c(ccc3ccccc32)c[n+]2ccccc12`, the TGI in the experiment on NCI-H522 lung is 18.8 µM; in the experiment with SR leukemia it was 23.3 µM; in the experiment with RPMI-8226 leukemia, greater than 100 µM; in the experiment with HOP-62 NSCLC, 26.7 µM; in the experiment with OVCAR-4 ovarian, 28.9 µM; with MALME-3M melanoma it was 6.98 µM.

With `Cc1ccc(-c2cc(-c3c(C)nn(C)c(=O)c3N)[nH]n2)cc1`, the TGI in the experiment on SR leukemia, in the experiment on HS 578T breast, with RPMI-8226 leukemia, with LOX IMVI melanoma, in the experiment with SK-OV-3 ovarian and in the experiment with NCI/ADR-RES ovarian was greater than 100 µM each time. Moreover, the TGI in the experiment with OVCAR-4 ovarian and in the experiment with MALME-3M melanoma was greater than 100 µM in each case.

`N#CCCN(CCC#N)c1ccc(C(N=Nc2ccc(Cl)cc2)=Nc2ccc(F)cc2)cc1`: the TGI in the experiment on NCI-H522 lung, in the experiment with SR leukemia, in the experiment on HS 578T breast, in the experiment on RPMI-8226 leukemia, with SK-OV-3 ovarian and with NCI/ADR-RES ovarian was greater than 100 µM each time. The TGI in the experiment with HOP-62 NSCLC and in the experiment with OVCAR-4 ovarian was greater than 100 µM in each case.

Regarding `COc1ccc(/C=C2/CCS(=O)(=O)c3ccc(C)cc3C2=O)cc1OC`, the TGI in the experiment on SR leukemia was 58.1 µM; with HS 578T breast, 73.2 µM; with RPMI-8226 leukemia, 37.6 µM; with LOX IMVI melanoma, 20.4 µM; in the experiment with SK-OV-3 ovarian, greater than 100 µM; in the experiment on NCI/ADR-RES ovarian, 46.5 µM. The TGI was greater than 100 µM in the experiment with HOP-62 NSCLC and 66.9 µM in the experiment on OVCAR-4 ovarian.

In the case of `COC(=O)C1C(C(=O)OC)C1(Br)CBr` (centres undefined), the TGI in the experiment on NCI-H522 lung is 14.1 µM; in the experiment with SR leukemia it was 46.8 µM; in the experiment with HS 578T breast it was greater than 100 µM; in the experiment with RPMI-8226 leukemia, 44.3 µM; in the experiment with LOX IMVI melanoma, 51.5 µM; with SK-OV-3 ovarian, greater than 100 µM. Moreover, the TGI in the experiment on NCI/ADR-RES ovarian, in the experiment with HOP-62 NSCLC and in the experiment with OVCAR-4 ovarian was greater than 100 µM throughout.

For the compound `Cc1cc(C)n(C(=O)CSc2nnc(SCC(=O)n3nc(C)cc3C)s2)n1`, the TGI was greater than 100 µM with SR leukemia; 89.3 µM in the experiment with HS 578T breast; greater than 100 µM in the experiment on RPMI-8226 leukemia; greater than 100 µM with LOX IMVI melanoma; greater than 100 µM in the experiment on SK-OV-3 ovarian; greater than 100 µM with NCI/ADR-RES ovarian. Further, the TGI with HOP-62 NSCLC and with OVCAR-4 ovarian was greater than 100 µM in each case.

On to `CCCCCCCCCc1c(O)c(O)c(CCCCCCCCC)c(CCCCCCCCC)c1CCCCCCCCC`, for which the TGI in the experiment on NCI-H522 lung, with HS 578T breast, in the experiment on RPMI-8226 leukemia, with LOX IMVI melanoma, with SK-OV-3 ovarian and with NCI/ADR-RES ovarian was greater than 100 µM in each case. Moreover, the TGI with HOP-62 NSCLC, with OVCAR-4 ovarian and in the experiment on MALME-3M melanoma was greater than 100 µM throughout.
